# From US20240336608A1, “IL4I1 INHIBITORS AND METHODS OF USE” (Merck Sharp & Dohme LLC, priority 2023, published 2024)
# pEC50: −log10 of the molar value.
# Biological target: T1, recombinant IL4I1 (Homo sapiens, UniProt Q96RQ9)
# T1 construct: purchased R&D Systems 5684-AO-020
# T1 sequence (Q96RQ9 22-567): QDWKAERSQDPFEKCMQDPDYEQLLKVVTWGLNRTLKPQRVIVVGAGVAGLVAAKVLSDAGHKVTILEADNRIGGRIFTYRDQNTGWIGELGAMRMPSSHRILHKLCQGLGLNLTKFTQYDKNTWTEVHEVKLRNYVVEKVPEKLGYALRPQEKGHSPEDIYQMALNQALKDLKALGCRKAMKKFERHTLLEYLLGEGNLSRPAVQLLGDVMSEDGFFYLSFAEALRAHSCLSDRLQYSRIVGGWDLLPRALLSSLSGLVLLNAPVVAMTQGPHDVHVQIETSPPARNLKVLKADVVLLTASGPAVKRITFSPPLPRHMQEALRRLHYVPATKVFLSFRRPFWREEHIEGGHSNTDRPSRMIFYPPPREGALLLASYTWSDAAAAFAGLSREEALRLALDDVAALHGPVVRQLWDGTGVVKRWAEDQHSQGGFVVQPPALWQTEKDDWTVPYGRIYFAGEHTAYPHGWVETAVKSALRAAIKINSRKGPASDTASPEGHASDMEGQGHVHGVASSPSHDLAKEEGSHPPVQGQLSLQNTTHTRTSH
# Assay: IL4I1 Enzymatic Assay (Amplex Red/HRP coupled detection of H2O2, fluorescence)
# Format: biochemical
# Conditions: 1 nM recombinant IL4I1; four-hour pre-incubation with compound; 1 mM each Phe, Tyr, Trp; ten-point titration
# Outline: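 H2O2 output was coupled to resorufin fluorescence (ex 544/em 590) via 0.05 mM Amplex Red and 1 U/mL HRP. Substrate: Phe, Tyr, Trp at 1 mM each; enzyme 1 nM, 4 h compound pre-incubation, 120 min reaction, pH 7.0 Hepes. EC50 by nonlinear four-parameter regression, 1:3 ten-point titration.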
row,pEC50,Compound
1,6.76,"Cc1ccc(-n2cc(C(=O)NCc3nnc(-c4ccccc4)s3)nn2)c(=O)[nH]1 [Example 339, 1-(6-methyl-2-oxo-1,2-dihydropyridin-3-yl)-N-((5-phenyl-1,3,4-thiadiazol-2-yl)methyl)-1H-1,2,3-triazole-4-carboxamide]"
2,6.11,"O=C(NCc1nnc(-c2ccccc2)s1)c1c[nH]nc1C(F)(F)F [Example 44, N-[(5-phenyl-1,3,4-thiadiazol-2-yl)methyl]-3-(trifluoromethyl)-1H-pyrazole-4-carboxamide]"
3,6.47,"Cc1cccn2cc(C(=O)NCc3nnc(-c4ccccc4)s3)nc12 [Example 13, 8-methyl-N-((5-phenyl-1,3,4-thiadiazol-2-yl)methyl)imidazo[1,2-a]pyridine-2-carboxamide]"
4,6.72,"O=C(NCc1nnc(-c2ccccc2)s1)c1cn(C2CCCCC2)nn1 [Example 95, 1-cyclohexyl-N-((5-phenyl-1,3,4-thiadiazol-2-yl)methyl)-1H-1,2,3-triazole-4-carboxamide]"
5,7.16,"Cc1cc(C(=O)NCc2nnc(-c3ccccc3)s2)ns1 [Example 260, 5-methyl-N-((5-phenyl-1,3,4-thiadiazol-2-yl)methyl)isothiazole-3-carboxamide]"
6,8.22,"CNC(=O)Cn1cc(C(=O)NCc2nnc(-c3ccccc3)s2)nn1 [Example 81, 1-(2-(methylamino)-2-oxoethyl)-N-((5-phenyl-1,3,4-thiadiazol-2-yl)methyl)-1H-1,2,3-triazole-4-carboxamide]"
7,7.96,"N#CCCn1cc(C(=O)NCc2nnc(-c3ccccc3)s2)nn1 [Example 71, 1-(2-cyanoethyl)-N-((5-phenyl-1,3,4-thiadiazol-2-yl)methyl)-1H-1,2,3-triazole-4-carboxamide]"
8,6.49,"O=C(NCc1nnc(-c2ccccc2)s1)c1cn(CCC2CCCO2)nn1 (stereo not shown) [Example 207, N-((5-phenyl-1,3,4-thiadiazol-2-yl)methyl)-1-(2-(tetrahydrofuran-2-yl)ethyl)-1H-1,2,3-triazole-4-carboxamide]"
9,6.82,"Cc1ccsc1C(=O)NCc1nnc(-c2ccccc2)s1 [Example 15, 3-methyl-N-[(5-phenyl-1,3,4-thiadiazol-2-yl)methyl]thiophene-2-carboxamide]"
10,7.43,"Cc1ccc(-n2cc(C(=O)NCc3nnc(-c4ccccc4F)s3)nn2)c(C)n1 [Example 114, 1-(2,6-dimethylpyridin-3-yl)-N-((5-(2-fluorophenyl)-1,3,4-thiadiazol-2-yl)methyl)-1H-1,2,3-triazole-4-carboxamide]"
11,8.52,"CC[C@H](c1ccc(F)cc1)n1cc(C(=O)NCc2nnc(-c3ccccc3)s2)nn1 [Example 256, (R)-1-(1-(4-fluorophenyl)propyl)-N-((5-phenyl-1,3,4-thiadiazol-2-yl)methyl)-1H-1,2,3-triazole-4-carboxamide]"
12,7.52,"O=C(NCc1cc(-c2ccccc2)no1)c1cn(CC(F)(F)F)nn1 [Example 231, N-((3-phenylisoxazol-5-yl)methyl)-1-(2,2,2-trifluoroethyl)-1H-1,2,3-triazole-4-carboxamide]"
13,6.76,"Cc1ccc(-n2cc(C(=O)NCc3ccc(-n4ccnn4)nn3)nn2)c(C)n1 (single isomer, unassigned) [Example 345, N-((6-(1H-1,2,3-triazol-1-yl)pyridazin-3-yl)methyl)-1-(2,6-dimethylpyridin-3-yl)-1H-1,2,3-triazole-4-carboxamide]"
14,8.00,"COc1ccsc1C(=O)NCc1nnc(-c2ccccc2)s1 [Example 29, 3-methoxy-N-[(5-phenyl-1,3,4-thiadiazol-2-yl)methyl]thiophene-2-carboxamide]"
15,8.10,"O=C(NCc1nnc(-c2ccccc2)s1)c1cn(CCCF)nn1 [Example 93, 1-(3-fluoropropyl)-N-((5-phenyl-1,3,4-thiadiazol-2-yl)methyl)-1H-1,2,3-triazole-4-carboxamide]"
16,7.38,"O=C(NCc1nnc(-c2ccccc2)s1)c1n[nH]c(C2CC2)c1F [Example 31, 5-cyclopropyl-4-fluoro-N-[(5-phenyl-1,3,4-thiadiazol-2-yl)methyl]-1H-pyrazole-3-carboxamide]"
17,7.13,"CC([C@H]1CCCO1)n1cc(C(=O)NCc2nnc(-c3ccccc3)s2)nn1 (stereo partly drawn) [Example 204, N-((5-phenyl-1,3,4-thiadiazol-2-yl)methyl)-1-(1-((R)-tetrahydrofuran-2-yl)ethyl)-1H-1,2,3-triazole-4-carboxamide]"
18,6.97,"O=C(NCc1nnc(-c2ccccc2)s1)c1cn([C@H]2COC[C@@H]2O)nn1 [Example 189, 1-((3S,4R)-4-hydroxytetrahydrofuran-3-yl)-N-((5-phenyl-1,3,4-thiadiazol-2-yl)methyl)-1H-1,2,3-triazole-4-carboxamide]"
19,8.05,"C[C@@H](CO)n1cc(C(=O)NCc2nnc(-c3ccccc3)s2)nn1 [Example 166, (S)-1-(1-hydroxypropan-2-yl)-N-((5-phenyl-1,3,4-thiadiazol-2-yl)methyl)-1H-1,2,3-triazole-4-carboxamide]"
20,6.34,"O=C(NCc1nnc(-c2ccccc2)s1)c1cc2n(n1)CCSC2 [Example 34, N-[(5-phenyl-1,3,4-thiadiazol-2-yl)methyl]-6,7-dihydro-4H-pyrazolo[5,1-c][1,4]thiazine-2-carboxamide]"
21,6.31,"CC1(O)CCC(n2cc(C(=O)NCc3nnc(-c4ccccc4)s3)nn2)CC1 (stereo not shown) [Example 97, 1-(4-hydroxy-4-methylcyclohexyl)-N-((5-phenyl-1,3,4-thiadiazol-2-yl)methyl)-1H-1,2,3-triazole-4-carboxamide]"
22,6.05,"Cc1nc(C)c(-n2cc(C(=O)NCc3nnc(-c4ccccc4)s3)nn2)s1 [Example 212, 1-(2,4-dimethylthiazol-5-yl)-N-((5-phenyl-1,3,4-thiadiazol-2-yl)methyl)-1H-1,2,3-triazole-4-carboxamide]"
23,7.12,"Cc1ccc(-n2cc(C(=O)NCc3cc(-c4ccccn4)on3)nn2)c(C)n1 [Example 238, 1-(2,6-dimethylpyridin-3-yl)-N-((5-(pyridin-2-yl)isoxazol-3-yl)methyl)-1H-1,2,3-triazole-4-carboxamide]"
24,6.32,"Cc1ccc(-n2cc(C(=O)NCc3nnc(-c4cccnc4)s3)nn2)c(C)n1 [Example 264, 1-(2,6-dimethylpyridin-3-yl)-N-((5-(pyridin-3-yl)-1,3,4-thiadiazol-2-yl)methyl)-1H-1,2,3-triazole-4-carboxamide]"
25,7.59,"Cc1ccc(-n2cc(C(=O)NCc3cc(-c4ccncc4)on3)nn2)c(C)n1 [Example 266, 1-(2,6-dimethylpyridin-3-yl)-N-((5-(pyridin-4-yl)isoxazol-3-yl)methyl)-1H-1,2,3-triazole-4-carboxamide]"
26,6.75,"CCn1cc(C(=O)NCc2nnc(-c3ccccc3)s2)cn1 [Example 43, 1-ethyl-N-[(5-phenyl-1,3,4-thiadiazol-2-yl)methyl]pyrazole-4-carboxamide]"
27,7.35,"COC(=O)C(C)(C)n1cc(C(=O)NCc2nnc(-c3ccccc3)s2)nn1 [Example 255, methyl 2-methyl-2-(4-(((5-phenyl-1,3,4-thiadiazol-2-yl)methyl)carbamoyl)-1H-1,2,3-triazol-1-yl)propanoate]"
28,7.66,"Cc1ccc(-n2cc(C(=O)NCc3nnc(-c4cn[nH]c4)s3)nn2)c(C)n1 [Example 300, N-((5-(1H-pyrazol-4-yl)-1,3,4-thiadiazol-2-yl)methyl)-1-(2,6-dimethylpyridin-3-yl)-1H-1,2,3-triazole-4-carboxamide]"
